Literature values as cited in patent publication US20190105332A1, “METHODS OF TREATING PROSTATE CANCER” (Janssen Oncology, Inc., priority 2017, published 2019).
Read-outs that look alike come from different tables or passages of the source.

What was measured:
[1] = for activity of metabolite / share of exposure as circulating metabolite in human plasma: in vivo
[2] = not given; remark: listed apart in the source
[3] = not given; remark: listed apart in the source
[4] = end-stage renal disease on dialysis; single oral 1,000 mg dose
CYP3A4 [5] = molecular target: T1, CYP3A4 (Homo sapiens, UniProt P08684); conditions: in vitro
CYP2D6 = molecular target: T2, CYP2D6 (Homo sapiens, UniProt P10635); conditions: human hepatic microsomes
T2 construct: from tissue; host or cells: in vivo, trial participants (endogenous hepatic enzyme)

CYP2C9 = molecular target: T3, CYP2C9 (Homo sapiens, UniProt P11712); conditions: human hepatic microsomes
T3 construct: In vitro studies with human hepatic microsomes; from tissue; host or cells: human hepatic microsomes

P-glycoprotein (P-gp) = P-glycoprotein (P-gp) (Homo sapiens, UniProt P08183); conditions: in vitro, clinically relevant concentrations
OATP1B1 = molecular target: T4, OATP1B1 (Homo sapiens, UniProt Q9Y6L6); conditions: in vitro
T4 sequence (Q9Y6L6 1-691): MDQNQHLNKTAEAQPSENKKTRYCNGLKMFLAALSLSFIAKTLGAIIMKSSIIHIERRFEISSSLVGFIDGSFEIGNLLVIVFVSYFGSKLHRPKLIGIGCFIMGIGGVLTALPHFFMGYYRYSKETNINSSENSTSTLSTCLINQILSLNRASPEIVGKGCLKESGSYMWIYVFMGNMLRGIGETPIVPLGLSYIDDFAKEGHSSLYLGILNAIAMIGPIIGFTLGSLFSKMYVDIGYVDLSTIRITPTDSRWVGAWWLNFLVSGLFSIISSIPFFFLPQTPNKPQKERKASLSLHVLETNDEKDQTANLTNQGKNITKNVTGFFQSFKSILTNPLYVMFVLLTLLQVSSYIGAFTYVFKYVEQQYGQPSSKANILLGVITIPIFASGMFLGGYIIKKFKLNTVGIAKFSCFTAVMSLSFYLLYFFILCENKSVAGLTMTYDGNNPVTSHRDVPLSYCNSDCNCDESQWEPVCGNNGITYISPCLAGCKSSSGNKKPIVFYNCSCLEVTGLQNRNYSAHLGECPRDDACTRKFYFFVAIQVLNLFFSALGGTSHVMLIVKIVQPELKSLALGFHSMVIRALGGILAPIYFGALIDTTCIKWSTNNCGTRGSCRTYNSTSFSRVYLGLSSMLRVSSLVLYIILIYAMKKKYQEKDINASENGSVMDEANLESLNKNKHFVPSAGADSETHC

[6] = tested on: human plasma proteins, albumin and alpha-1 acid glycoprotein
[7] = tested on: primary human lymphocytes
[8] = rat micronucleus assay
CYP3A4 [9] = molecular target: T1, CYP3A4; set-up: from tissue; host or cells: in vivo, healthy human subjects (endogenous enzyme); conditions: healthy subjects
CYP1A2 = molecular target: T5, CYP1A2 (Homo sapiens, UniProt P05177); set-up: In vitro studies with human hepatic microsomes; from tissue; host or cells: human hepatic microsomes; conditions: human hepatic microsomes
T5 sequence (P05177 1-516): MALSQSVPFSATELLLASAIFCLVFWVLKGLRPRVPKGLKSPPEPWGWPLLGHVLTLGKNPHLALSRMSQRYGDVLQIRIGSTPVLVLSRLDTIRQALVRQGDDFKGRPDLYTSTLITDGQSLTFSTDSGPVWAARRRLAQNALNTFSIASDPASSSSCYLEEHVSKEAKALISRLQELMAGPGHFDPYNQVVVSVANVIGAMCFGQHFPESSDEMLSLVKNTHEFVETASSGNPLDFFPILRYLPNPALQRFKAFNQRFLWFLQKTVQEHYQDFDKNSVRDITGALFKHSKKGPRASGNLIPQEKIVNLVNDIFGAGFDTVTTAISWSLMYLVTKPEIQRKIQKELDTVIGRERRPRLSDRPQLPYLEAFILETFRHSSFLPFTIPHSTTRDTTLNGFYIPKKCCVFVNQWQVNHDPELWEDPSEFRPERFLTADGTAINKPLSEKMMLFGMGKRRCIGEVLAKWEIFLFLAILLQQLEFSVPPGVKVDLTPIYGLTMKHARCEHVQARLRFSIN

[10] = healthy subjects, single dose with high-fat (57% fat, 825 calories) meal
[11] = healthy subjects, single dose with low-fat meal (7% fat, 300 calories)

T1 sequence (P08684 whole entry): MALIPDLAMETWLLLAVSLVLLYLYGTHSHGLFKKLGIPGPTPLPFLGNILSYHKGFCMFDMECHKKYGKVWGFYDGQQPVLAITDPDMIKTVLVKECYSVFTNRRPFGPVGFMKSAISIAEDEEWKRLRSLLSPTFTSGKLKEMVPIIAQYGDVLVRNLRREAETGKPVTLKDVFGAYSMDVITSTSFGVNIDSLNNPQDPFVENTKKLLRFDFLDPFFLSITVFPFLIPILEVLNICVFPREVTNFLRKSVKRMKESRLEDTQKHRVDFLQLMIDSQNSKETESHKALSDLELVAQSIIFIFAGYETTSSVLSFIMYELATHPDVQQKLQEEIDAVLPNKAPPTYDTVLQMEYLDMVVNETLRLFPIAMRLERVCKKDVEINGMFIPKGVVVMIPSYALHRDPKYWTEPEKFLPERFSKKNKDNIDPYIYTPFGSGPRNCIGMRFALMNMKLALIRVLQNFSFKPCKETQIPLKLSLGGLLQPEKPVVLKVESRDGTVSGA
T3 sequence (P11712 whole entry): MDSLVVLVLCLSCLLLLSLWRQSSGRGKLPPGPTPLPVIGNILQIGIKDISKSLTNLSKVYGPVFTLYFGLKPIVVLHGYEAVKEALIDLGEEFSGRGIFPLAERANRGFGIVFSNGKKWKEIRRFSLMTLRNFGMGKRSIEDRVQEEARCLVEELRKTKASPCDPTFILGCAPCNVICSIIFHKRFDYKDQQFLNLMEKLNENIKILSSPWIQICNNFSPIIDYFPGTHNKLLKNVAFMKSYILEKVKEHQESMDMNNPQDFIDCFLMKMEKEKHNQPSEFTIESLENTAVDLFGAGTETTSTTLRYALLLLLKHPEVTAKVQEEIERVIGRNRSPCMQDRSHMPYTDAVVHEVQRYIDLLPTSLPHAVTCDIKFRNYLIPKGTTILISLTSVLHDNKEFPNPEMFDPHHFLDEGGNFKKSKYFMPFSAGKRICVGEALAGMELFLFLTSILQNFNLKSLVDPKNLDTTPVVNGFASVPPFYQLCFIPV
T2 sequence (P10635 whole entry): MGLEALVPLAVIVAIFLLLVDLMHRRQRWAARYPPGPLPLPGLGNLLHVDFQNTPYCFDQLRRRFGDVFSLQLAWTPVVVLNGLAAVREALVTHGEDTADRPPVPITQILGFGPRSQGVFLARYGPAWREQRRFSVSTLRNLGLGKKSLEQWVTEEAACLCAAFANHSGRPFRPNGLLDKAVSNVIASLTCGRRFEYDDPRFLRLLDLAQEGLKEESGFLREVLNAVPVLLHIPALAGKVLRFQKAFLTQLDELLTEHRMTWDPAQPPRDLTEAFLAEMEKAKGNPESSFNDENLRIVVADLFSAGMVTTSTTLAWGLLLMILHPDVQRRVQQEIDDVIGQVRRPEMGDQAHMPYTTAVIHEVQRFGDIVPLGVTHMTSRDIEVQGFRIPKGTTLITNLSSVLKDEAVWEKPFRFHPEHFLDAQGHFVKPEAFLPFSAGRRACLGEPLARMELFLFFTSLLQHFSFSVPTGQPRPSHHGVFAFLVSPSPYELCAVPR
Sequence of P-glycoprotein (P-gp) (P08183 whole entry): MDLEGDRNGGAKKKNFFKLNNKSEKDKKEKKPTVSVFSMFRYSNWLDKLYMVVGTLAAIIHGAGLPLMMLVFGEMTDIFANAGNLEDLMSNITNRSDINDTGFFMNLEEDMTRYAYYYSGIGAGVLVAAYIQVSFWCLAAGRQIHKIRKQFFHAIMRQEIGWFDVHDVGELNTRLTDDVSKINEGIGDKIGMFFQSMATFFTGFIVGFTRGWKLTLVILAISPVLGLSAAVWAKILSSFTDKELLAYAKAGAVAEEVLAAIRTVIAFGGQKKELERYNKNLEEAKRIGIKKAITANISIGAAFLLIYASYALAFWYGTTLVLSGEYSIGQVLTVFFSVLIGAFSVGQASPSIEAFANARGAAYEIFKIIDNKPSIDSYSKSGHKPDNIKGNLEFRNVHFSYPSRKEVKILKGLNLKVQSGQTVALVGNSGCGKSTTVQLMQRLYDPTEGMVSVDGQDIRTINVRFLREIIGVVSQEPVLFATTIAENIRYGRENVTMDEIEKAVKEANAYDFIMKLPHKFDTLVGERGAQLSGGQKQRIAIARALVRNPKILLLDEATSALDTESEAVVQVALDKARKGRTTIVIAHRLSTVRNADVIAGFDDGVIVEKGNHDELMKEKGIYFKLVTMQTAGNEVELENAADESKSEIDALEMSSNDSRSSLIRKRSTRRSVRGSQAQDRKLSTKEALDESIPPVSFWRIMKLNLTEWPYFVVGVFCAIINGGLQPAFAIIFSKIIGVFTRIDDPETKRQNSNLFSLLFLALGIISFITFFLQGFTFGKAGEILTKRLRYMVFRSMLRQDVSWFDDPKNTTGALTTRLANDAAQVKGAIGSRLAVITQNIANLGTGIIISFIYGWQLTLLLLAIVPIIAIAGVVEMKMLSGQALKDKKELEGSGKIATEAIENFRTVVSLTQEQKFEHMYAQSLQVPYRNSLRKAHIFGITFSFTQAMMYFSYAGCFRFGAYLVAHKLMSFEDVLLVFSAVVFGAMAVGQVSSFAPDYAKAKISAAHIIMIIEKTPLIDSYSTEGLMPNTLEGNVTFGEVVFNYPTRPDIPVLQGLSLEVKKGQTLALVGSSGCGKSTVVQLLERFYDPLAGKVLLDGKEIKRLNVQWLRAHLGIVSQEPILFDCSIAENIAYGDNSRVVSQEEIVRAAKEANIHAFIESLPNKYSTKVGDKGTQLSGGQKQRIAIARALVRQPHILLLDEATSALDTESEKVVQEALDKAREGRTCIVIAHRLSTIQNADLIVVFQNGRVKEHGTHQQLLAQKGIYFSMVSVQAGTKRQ

C[C@]12CC[C@H](OS(=O)(=O)O)CC1=CC[C@@H]1[C@@H]2CC[C@]2(C)C(c3ccc[n+]([O-])c3)=CC[C@@H]12 [N-oxide abiraterone sulphate]
activity of metabolite [1]: inactive | share of exposure as circulating metabolite in human plasma [1]: about 43%

C[C@]12CC[C@H](O)CC1=CC[C@@H]1[C@@H]2CC[C@]2(C)C(c3cccnc3)=CC[C@@H]12 [abiraterone]
steady-state Cmax (mean±SD) (1,000 mg daily, patients with metastatic CRPC): 226 ± 178 ng/mL | dose proportionality (dose range of 250 mg to 1,000 mg): No major deviation from dose proportionality | increase in the mean AUC when dose doubled (from 1,000 to 2,000 mg): 8% | accumulation: steady-state AUC compared to a single 1,000 mg dose (human, in vivo): 2 fold | median time to reach maximum plasma abiraterone concentrations (oral abiraterone acetate, patients with metastatic CRPC): 2 h | AUC0-∞, fold higher vs overnight fasting [2, 10]: ~10 fold | Cmax, fold higher vs overnight fasting [2, 10]: approximately 17 fold | AUC0-∞, fold higher vs overnight fasting [2, 11]: ~5 fold | Cmax, fold higher vs overnight fasting [2, 11]: approximately 7 fold | systemic exposure increase vs dosing away from meals ([2]; patients with metastatic CRPC, repeated dosing with high-fat meals for 7 days): approximately 2 fold | systemic exposure vs dosing away from meals ([2]; patients with metastatic CRPC, repeated dosing with low-fat meals for 7 days): similar | AUC0-∞, fold higher vs overnight fasting ([2]; single dose 1 hour before a medium fat meal (25% fat, 491 calories)): ~1.6 fold | AUC0-∞, fold higher vs overnight fasting ([2]; single dose 2 hours after a medium fat meal (25% fat, 491 calories)): approximately 7 fold | mean half-life ([3]; mild hepatic impairment): approximately 18 hours | mean half-life ([3]; moderate hepatic impairment): approximately 19 hours | systemic exposure (AUC) increase vs normal hepatic function ([3]; moderate hepatic impairment (Child-Pugh Class B), single oral 1,000 mg dose): ~3.6 fold | systemic exposure (AUC) increase vs normal hepatic function ([3]; severe hepatic impairment (Child-Pugh Class C)): approximately 7 fold | systemic exposure vs normal renal function [4]: did not increase | substrate of CYP3A4 (CYP3A4 [5]): substrate | inhibition of CYP2D6 (CYP2D6): potential to inhibit | inhibition of CYP2C9 (CYP2C9): to a lesser extent | substrate of P-glycoprotein (P-gp) (P-glycoprotein (P-gp)): not substrates | inhibition of hepatic uptake transporter OATP1B1 (OATP1B1): inhibit | bound to human plasma proteins [6]: > 99% | clastogenicity in vitro [7]: not mutagenic in an in vitro microbial mutagenesis (Ames) assay or clastogenic | clastogenicity in vivo [8]: not mutagenic in an in vitro microbial mutagenesis (Ames) assay or clastogenic | compound present in feces, share of the administered dose ([1]; oral 14C-abiraterone acetate): ~22% | effect of ketoconazole co-administration on pharmacokinetics (CYP3A4 [9]): no clinically meaningful effect | decrease of exposure (mean plasma AUC∞) with rifampin (CYP3A4 [9]; rifampin 600 mg daily for 6 days, then single 1,000 mg abiraterone acetate): 55% | inhibition of CYP1A2 (CYP1A2): potential to inhibit

abiraterone sulphate
activity of metabolite [1]: inactive | share of exposure as circulating metabolite in human plasma [1]: about 43%
